Patent US20150094474A1, “AGRICULTURAL CHEMICALS” (Redx Pharma Ltd., priority 2012, published 2015)

How the values were obtained:
barley = assay: Herbicidal bioassay, barley (% necrosis); format: in vivo
Protocol: (§1) A laboratory bioassay was conducted to screen ten compounds (Fluazifop (25); Ethyl fluazifop (62); five fluazifop analogues: 27, 28, 63, 64 and 65; mesofulfuron (6); and two mesosulfuron analogues: 8 and 61. for activity against Lolium perenne, barley, peas and Chinese cabbage. Compounds were diluted in DMSO. Controls were performed using both DMSO and water.
(§2) Plants were obtained as seeds and were grown to the 2-4 true leaf stage. Plants were grown individually in seed trays. Each plant (in an approximately 3 cm diameter plug) was then detached from the tray for spraying. Environmental conditions were closely monitored and recorded and were within the optimal range of the target species.
(§3) The compounds were screened at a range of six concentrations, eg. 0.05%, 0.01%, 0.005%, 0.001%, 0.0005% and 0.0001%. Treatments will be applied directly onto the plants, using a potter tower.
(§4) One plant of each type will be sprayed using a potter tower. The 4 different types of weeds will be placed in a 10 cm diameter area underneath the potter sprayer and sprayed simultaneously. The growth of the plants and any Phytotoxicity effects will then be assessed at specified growth intervals, according to EPPO guideline PP1/135. Five replicates will be performed for each treatment, for each species.

peas = assay: Herbicidal bioassay, peas (% necrosis); format: in vivo
Protocol: as §1, §2, §3, §4

CC(Oc1ccc(Oc2ccc(C(F)(F)F)cn2)cc1)C(=O)O (stereo not drawn) [Compound 25, Fluazifop, reference compound]
Sum of % necrosis in barley (barley; Dose 0.000001, Day 0): C (less than 50% necrosis) | Sum of % necrosis in barley (barley; Dose 0.000001, Day 1): C (less than 50% necrosis) | Sum of % necrosis in barley (barley; Dose 0.000001, Day 3): C (less than 50% necrosis) | Sum of % necrosis in barley (barley; Dose 0.000001, Day 7): C (less than 50% necrosis) | Sum of % necrosis in barley (barley; Dose 0.000001, Day 10): C (less than 50% necrosis) | Sum of % necrosis in barley (barley; Dose 0.000001, Day 14): C (less than 50% necrosis) | Sum of % necrosis in barley (barley; Dose 0.000001, Day 21): C (less than 50% necrosis) | Sum of % necrosis in barley (barley; Dose 0.000005, Day 0): C (less than 50% necrosis) | Sum of % necrosis in barley (barley; Dose 0.000005, Day 1): C (less than 50% necrosis) | Sum of % necrosis in barley (barley; Dose 0.000005, Day 3): C (less than 50% necrosis) | Sum of % necrosis in barley (barley; Dose 0.000005, Day 7): C (less than 50% necrosis) | Sum of % necrosis in barley (barley; Dose 0.000005, Day 10): C (less than 50% necrosis) | Sum of % necrosis in barley (barley; Dose 0.000005, Day 14): C (less than 50% necrosis) | Sum of % necrosis in barley (barley; Dose 0.000005, Day 21): C (less than 50% necrosis) | Sum of % necrosis in barley (barley; Dose 0.00001, Day 0): C (less than 50% necrosis) | Sum of % necrosis in barley (barley; Dose 0.00001, Day 1): C (less than 50% necrosis) | Sum of % necrosis in barley (barley; Dose 0.00001, Day 3): C (less than 50% necrosis) | Sum of % necrosis in barley (barley; Dose 0.00001, Day 7): C (less than 50% necrosis) | Sum of % necrosis in barley (barley; Dose 0.00001, Day 10): C (less than 50% necrosis) | Sum of % necrosis in barley (barley; Dose 0.00001, Day 14): C (less than 50% necrosis) | Sum of % necrosis in barley (barley; Dose 0.00001, Day 21): C (less than 50% necrosis) | Sum of % necrosis in barley (barley; Dose 0.00005, Day 0): C (less than 50% necrosis) | Sum of % necrosis in barley (barley; Dose 0.00005, Day 1): C (less than 50% necrosis) | Sum of % necrosis in barley (barley; Dose 0.00005, Day 3): C (less than 50% necrosis) | Sum of % necrosis in barley (barley; Dose 0.00005, Day 7): C (less than 50% necrosis) | Sum of % necrosis in barley (barley; Dose 0.00005, Day 10): C (less than 50% necrosis) | Sum of % necrosis in barley (barley; Dose 0.00005, Day 14): C (less than 50% necrosis) | Sum of % necrosis in barley (barley; Dose 0.00005, Day 21): A (over 80% necrosis) | Sum of % necrosis in barley (barley; Dose 0.0001, Day 0): C (less than 50% necrosis) | Sum of % necrosis in barley (barley; Dose 0.0001, Day 1): C (less than 50% necrosis) | Sum of % necrosis in barley (barley; Dose 0.0001, Day 3): C (less than 50% necrosis) | Sum of % necrosis in barley (barley; Dose 0.0001, Day 7): C (less than 50% necrosis) | Sum of % necrosis in barley (barley; Dose 0.0001, Day 10): C (less than 50% necrosis) | Sum of % necrosis in barley (barley; Dose 0.0001, Day 14): C (less than 50% necrosis) | Sum of % necrosis in barley (barley; Dose 0.0001, Day 21): A (over 80% necrosis) | Sum of % necrosis in barley (barley; Dose 0.0005, Day 0): C (less than 50% necrosis) | Sum of % necrosis in barley (barley; Dose 0.0005, Day 1): C (less than 50% necrosis) | Sum of % necrosis in barley (barley; Dose 0.0005, Day 3): C (less than 50% necrosis) | Sum of % necrosis in barley (barley; Dose 0.0005, Day 7): C (less than 50% necrosis) | Sum of % necrosis in barley (barley; Dose 0.0005, Day 10): C (less than 50% necrosis) | Sum of % necrosis in barley (barley; Dose 0.0005, Day 14): B (50%-80% necrosis) | Sum of % necrosis in barley (barley; Dose 0.0005, Day 21): A (over 80% necrosis) | Sum of % necrosis in Peas (peas; Dose 0.000001, Day 0): C (less than 50% necrosis) | Sum of % necrosis in Peas (peas; Dose 0.000001, Day 1): C (less than 50% necrosis) | Sum of % necrosis in Peas (peas; Dose 0.000001, Day 3): C (less than 50% necrosis) | Sum of % necrosis in Peas (peas; Dose 0.000001, Day 7): C (less than 50% necrosis) | Sum of % necrosis in Peas (peas; Dose 0.000001, Day 10): C (less than 50% necrosis) | Sum of % necrosis in Peas (peas; Dose 0.000001, Day 14): C (less than 50% necrosis) | Sum of % necrosis in Peas (peas; Dose 0.000001, Day 21): C (less than 50% necrosis) | Sum of % necrosis in Peas (peas; Dose 0.000005, Day 0): C (less than 50% necrosis) | Sum of % necrosis in Peas (peas; Dose 0.000005, Day 1): C (less than 50% necrosis) | Sum of % necrosis in Peas (peas; Dose 0.000005, Day 3): C (less than 50% necrosis) | Sum of % necrosis in Peas (peas; Dose 0.000005, Day 7): C (less than 50% necrosis) | Sum of % necrosis in Peas (peas; Dose 0.000005, Day 10): C (less than 50% necrosis) | Sum of % necrosis in Peas (peas; Dose 0.000005, Day 14): C (less than 50% necrosis) | Sum of % necrosis in Peas (peas; Dose 0.000005, Day 21): C (less than 50% necrosis) | Sum of % necrosis in Peas (peas; Dose 0.00001, Day 0): C (less than 50% necrosis) | Sum of % necrosis in Peas (peas; Dose 0.00001, Day 1): C (less than 50% necrosis) | Sum of % necrosis in Peas (peas; Dose 0.00001, Day 3): C (less than 50% necrosis) | Sum of % necrosis in Peas (peas; Dose 0.00001, Day 7): C (less than 50% necrosis) | Sum of % necrosis in Peas (peas; Dose 0.00001, Day 10): B (50%-80% necrosis) | Sum of % necrosis in Peas (peas; Dose 0.00001, Day 14): B (50%-80% necrosis) | Sum of % necrosis in Peas (peas; Dose 0.00001, Day 21): A (over 80% necrosis) | Sum of % necrosis in Peas (peas; Dose 0.00005, Day 0): C (less than 50% necrosis) | Sum of % necrosis in Peas (peas; Dose 0.00005, Day 1): C (less than 50% necrosis) | Sum of % necrosis in Peas (peas; Dose 0.00005, Day 3): C (less than 50% necrosis) | Sum of % necrosis in Peas (peas; Dose 0.00005, Day 7): C (less than 50% necrosis) | Sum of % necrosis in Peas (peas; Dose 0.00005, Day 10): C (less than 50% necrosis) | Sum of % necrosis in Peas (peas; Dose 0.00005, Day 14): C (less than 50% necrosis) | Sum of % necrosis in Peas (peas; Dose 0.00005, Day 21): A (over 80% necrosis) | Sum of % necrosis in Peas (peas; Dose 0.0001, Day 0): C (less than 50% necrosis) | Sum of % necrosis in Peas (peas; Dose 0.0001, Day 1): C (less than 50% necrosis) | Sum of % necrosis in Peas (peas; Dose 0.0001, Day 3): C (less than 50% necrosis) | Sum of % necrosis in Peas (peas; Dose 0.0001, Day 7): C (less than 50% necrosis) | Sum of % necrosis in Peas (peas; Dose 0.0001, Day 10): C (less than 50% necrosis) | Sum of % necrosis in Peas (peas; Dose 0.0001, Day 14): C (less than 50% necrosis) | Sum of % necrosis in Peas (peas; Dose 0.0001, Day 21): A (over 80% necrosis) | Sum of % necrosis in Peas (peas; Dose 0.0005, Day 0): C (less than 50% necrosis) | Sum of % necrosis in Peas (peas; Dose 0.0005, Day 1): C (less than 50% necrosis) | Sum of % necrosis in Peas (peas; Dose 0.0005, Day 3): C (less than 50% necrosis) | Sum of % necrosis in Peas (peas; Dose 0.0005, Day 7): C (less than 50% necrosis) | Sum of % necrosis in Peas (peas; Dose 0.0005, Day 10): C (less than 50% necrosis) | Sum of % necrosis in Peas (peas; Dose 0.0005, Day 14): C (less than 50% necrosis) | Sum of % necrosis in Peas (peas; Dose 0.0005, Day 21): A (over 80% necrosis)
